Measurements: patent publication US20100009957A1, “NOVEL INHIBITORS OF BETA-LACTAMASE” (priority 2006, published 2010)
Where two headings read alike, the source gives them in different places.

Tests used:
AmpC (P. aeruginosa.) = AmpC (P. aeruginosa.) (Pseudomonas aeruginosa, UniProt P24735); assay: biochemical; conditions: nitrocefin substrate, pH 7
Description: The Class C enzyme activities were measured in the presence of the test inhibitor in spectrophotometric assay against the commercially available substrate, nitrocefin. The enzyme AmpC (P. aeruginosa.), and the substrate, were dissolved in 100 mM KH2PO4 buffer (pH 7). The buffer also contains 0.005% BSA. The test inhibitor was dissolved in DMSO and diluted 1:20 in the assay, resulting in a final concentration range of 50 μM to 0.0002 μM. In a 96-well microplate, the test inhibitor was incubated with the beta-lactamase enzyme for 40 minutes at ambient temperature, the substrate solution was added, and the incubation continued for another 40 minutes. The spectrophotomertric reaction was quenched by the addition of 2.5N acetic acid and the absorbance at 492 nm was measured. The IC50 value was determined from semi logarithmic plots of enzyme inhibition versus inhibitor concentration, with a curve generated using a 4-parameter fit.

[1] = test system: P. aeruginosa strain CL5701; assay: Synergy assay (checkerboard) with imipenem; format: cell-based, Pseudomonas aeruginosa; conditions: for In Vitro 2X Synergy CL5701: concentration for 2X synergy with imipenem against P. aeruginosa strain CL5701; for In Vitro 8X Synergy CL5701: concentration for 8X synergy with imipenem against P. aeruginosa strain CL5701; for In Vitro 16X Synergy CL5701: concentration for 16X synergy with imipenem against P. aeruginosa strain CL5701
From the text: The assay determines the concentration of a β-lactamase inhibitor required to reduce the MIC of a β-lactam antibiotic by one-half, one-quarter, one-eighth, one-sixteenth and one-thirty-second against strains of bacteria normally resistant to the antibiotic in question. This is accomplished by titrating the BLI in a serial dilution across a microtiter plate while at the same time titrating the antibiotic in a serial dilution down the microtiter plate and then inoculating the plate with the bacterial strain in question and allowing the bacteria to grow up overnight. Each well in this microplate checkerboard contains a different combination of concentrations of the inhibitor and the antibiotic allowing a full determination of any synergy between the two.
• CL 5701 (Pseudomonas aeruginosa; Pa AmpC)/Imipenem • MB 2646 (Enterobacter cloacae; P99)/Ceftazidime • CL 5513 (Klebsiella pneumoniae; SHV-5)/Ceftazidime • CL 6188 (Acinetobacter baumanii; Oxa40)/Imipenem • CL 6569 (Klebsiella pneumoniae; KPC-2)/Imipenem • CL 5761 (Klebsiella pneumoniae; KPC-3)/Imipenem • CLB 21648 (Acinetobacter baumanii; Ab AmpC)/Imipenem
• 1. […] All wells in row A of MIC 2000 microtiter plates are filled with 100 μL of 2× MHBII+2% DMSO. • 3. […] 100 μL of 2× the final antibiotic concentration wanted is added to wells A2-A12 of the MIC 2000 plates. • 5. 100 μL is serially diluted from row A to row G of each MIC 2000 plate. • 6. 100 μL is removed from each well in row G of each MIC 2000 plate. • 7. 100 μL of 2× the final inhibitor concentration wanted (in MHBII+1% DMSO) is added to all wells in column 1 of the microtiter plates. • 8. 100 μL is serially diluted from column 1 to column 11 of each MIC 2000 plate. • 9. 100 μL is removed from each well in column 11 of each MIC 2000 plate. • 10. Plates are then inoculated with an overnight growth (in TSB) of the strain to be tested using an MIC 2000 inoculator. • 11. Plates are left at 37° C. for about 20 hours and scored for growth by eye.
Synergy may be expressed as a ratio of the minimum inhibitory concentration (MIC) of an antibiotic tested in the absence of a β-lactamase inhibitor to the MIC of the same antibiotic tested in the presence of the β-lactamase inhibitor. […] Alternatively, the synergy effect may be expressed as a factor, again, utilizing a concentration of the BLI to lower the MIC of the antibiotic.
Representative compounds of the present invention display a synergy effect. For example, the compounds of Examples 1 to 20 were determined to have 2× synergy concentrations in a range of from about 100 μM or less.

[2] = P. aeruginosa AmpC IC50, 40 min preincubation
[3] = 40 min preincubation, read-out: P. aeruginosa AmpC IC50

AmpC (P. aeruginosa.), sequence (P24735 27-397): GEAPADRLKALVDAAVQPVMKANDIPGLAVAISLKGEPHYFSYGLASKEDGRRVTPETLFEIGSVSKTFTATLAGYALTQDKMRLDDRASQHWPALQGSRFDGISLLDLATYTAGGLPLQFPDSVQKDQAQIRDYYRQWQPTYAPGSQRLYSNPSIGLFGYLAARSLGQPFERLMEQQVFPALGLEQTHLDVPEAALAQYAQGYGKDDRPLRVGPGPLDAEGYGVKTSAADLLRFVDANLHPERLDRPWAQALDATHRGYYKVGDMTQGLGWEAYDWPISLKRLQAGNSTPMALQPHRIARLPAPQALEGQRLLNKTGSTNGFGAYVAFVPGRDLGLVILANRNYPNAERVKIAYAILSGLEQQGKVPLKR

## O=C(NC1CCCCNCC1)N1CC[C@@H]2[C@H]1C(=O)N2S(=O)(=O)O (single isomer, unassigned; isomer a) [Example 17]
AmpC (P. aeruginosa.); [2]
  IC50: 1300 nM
[1]
  In Vitro 2X Synergy CL5701: 3.1 µM
  In Vitro 8X Synergy CL5701: 12.5 µM
  In Vitro 16X Synergy CL5701: 50 µM

## O=C(NC1CCCCNCC1)N1CC[C@@H]2[C@H]1C(=O)N2S(=O)(=O)O (single isomer, unassigned; isomer b) [Example 18]
AmpC (P. aeruginosa.); [2]
  IC50: 25000 nM
[1]
  In Vitro 2X Synergy CL5701: 12.5 µM
  In Vitro 8X Synergy CL5701: >100 µM
  In Vitro 16X Synergy CL5701: >100 µM

## O=C(NC1CCNCC1)N1CC[C@@H]2[C@H]1C(=O)N2S(=O)(=O)O [Compound A, reference compound]
AmpC (P. aeruginosa.); [2]
  IC50: 6800 nM
[1]
  In Vitro 2X Synergy CL5701: 3.7 µM
  In Vitro 8X Synergy CL5701: 21 µM
  In Vitro 16X Synergy CL5701: 67 µM

## O=C(N[C@H]1CCCNCC1)N1CC[C@@H]2[C@H]1C(=O)N2S(=O)(=O)O [Example 1]
AmpC (P. aeruginosa.); [3]
  IC50: 1200 nM
[1]
  In Vitro 2X Synergy CL5701: 2.3 µM
  In Vitro 16X Synergy CL5701: 25 µM

## O=C(N[C@@H]1CCCNCC1)N1CC[C@@H]2[C@H]1C(=O)N2S(=O)(=O)O [Example 2]
AmpC (P. aeruginosa.); [3]
  IC50: 4000 nM
[1]
  In Vitro 2X Synergy CL5701: 3.1 µM
  In Vitro 8X Synergy CL5701: 25 µM
  In Vitro 16X Synergy CL5701: 100 µM

## O=C(NC1CCCCCC1)N1CC[C@@H]2[C@H]1C(=O)N2S(=O)(=O)O [Example 3]
AmpC (P. aeruginosa.); [2]
  IC50: 400 nM
[1]
  In Vitro 2X Synergy CL5701: 100 µM
  In Vitro 8X Synergy CL5701: >100 µM
  In Vitro 16X Synergy CL5701: >100 µM

## O=C(N[C@@H]1CNCCOC1)N1CC[C@@H]2[C@H]1C(=O)N2S(=O)(=O)O [Example 7, (1S,5R)-2-{[(6R)-1,4-Oxazepan-6-ylamino]carbonyl}-7-oxo-2,6-diazabicyclo[3.2.0]heptane-6-sulfonic acid]
AmpC (P. aeruginosa.); [3]
  IC50: 600 nM
[1]
  In Vitro 2X Synergy CL5701: 6.3 µM
  In Vitro 8X Synergy CL5701: 25 µM
  In Vitro 16X Synergy CL5701: 100 µM

## O=C(N[C@H]1CNCCOC1)N1CC[C@@H]2[C@H]1C(=O)N2S(=O)(=O)O [Example 8, (1S,5R)-2-{[(6S)-1,4-Oxazepan-6-ylamino]carbonyl}-7-oxo-2,6-diazabicyclo[3.2.0]heptane-6-sulfonic acid]
AmpC (P. aeruginosa.); [3]
  IC50: 1100 nM
[1]
  In Vitro 2X Synergy CL5701: 6.3 µM
  In Vitro 8X Synergy CL5701: 50 µM
  In Vitro 16X Synergy CL5701: 100 µM
